Measurements published in US20050239656A1, “Pyridine compounds or salts thereof and herbicides containing the same” (priority 2002, published 2005).

Tests used:
wheat [1] = experiment: Test Example 1: foliage treatment, upland pot test; format: in vivo, Triticum spp.; details: crop, active ingredient 500 g/ha, observed 18th to 23rd day, 0 = non-treated, 100 = complete kill
Source text: Upland field soil was put into a 1/170,000 ha pot, and seed of various plants were sown. Then, when the plants reached predetermined leaf stages ((1) barnyardgrass: 1.3 to 2.8 leaf stages, (2) crabgrass: 1.0 to 2.8 leaf stages, (3) green foxtail: 1.3 to 2.6 leaf stages, (4) redroot pigweed: 0.1 to 1.2 leaf stages, (5) prickly sida: 0.1 to 1.2 leaf stages, (6) velvetleaf: 0.1 to 1.2 leaf stages, (7) tall morningglory: 0.1 to 1.5 leaf stages, (8) rice: 1.2 to 2.6 leaf stages, (9) wheat: 1.3 to 2.4 leaf stages, (10) corn, 2.1 to 3.2 leaf stages, (11) soybean: 0.1 to 0.4 leaf stage), a wettable powder or emulsifiable concentrate having the compound of the present invention formulated in accordance with a usual formulation method, was weighed so that the active ingredient would be a predetermined amount, and diluted with water in an amount of 500 L/ha. To the diluted solution, 0.1% (v/v) of agricultural spreader was added. The herbicide thus adjusted was applied by a small size sprayer for foliage treatment. On the 18th to 23rd days after the application of the herbicide, the growth of the respective plants was visually observed, and the herbicidal effects were evaluated by the growth controlling degrees (%) ranging from 0 (equivalent to the non-treated plot) to 100 (complete kill), whereby the results shown in Table 3, were obtained.

rice [2] = experiment: Test Example 2: soil surface treatment, upland pot test; format: in vivo, Oryza sativa L.; details: active ingredient 500 g/ha, observed 20th to 28th day
Summary of the method: (§1)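 Readout was visual percent growth control (0 matching untreated, 100 complete kill) at days 20–28. Compound, as emulsifiable concentrate or wettable powder at a preset active-ingredient rate in 1,500 L/ha water, was sprayed onto sown upland soil one day after sowing.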

soybean [3] = experiment: as above; format: in vivo, Glycine max Merr.; details: active ingredient 500 g/ha, observed 20th to 28th day
Summary of the method: as §1

velvetleaf [4] = experiment: as above; format: in vivo, Abutilon theophrasti MEDIC.; details: active ingredient 500 g/ha, observed 20th to 28th day
Summary of the method: as §1

corn [5] = experiment: as above; format: in vivo, Zea mays L.; details: active ingredient 500 g/ha, observed 20th to 28th day
Summary of the method: as §1

prickly sida [6] = experiment: as above; format: in vivo, Sida spinosa L.; details: active ingredient 500 g/ha, observed 20th to 28th day
Summary of the method: as §1

rice [7] = experiment: Test Example 1: foliage treatment, upland pot test; format: in vivo, Oryza sativa L.; details: crop, active ingredient 500 g/ha, observed 18th to 23rd day, 0 = non-treated, 100 = complete kill
Summary of the method: (§2)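 Visual growth-control score, 0% (like untreated) to 100% (complete kill), taken on days 18 to 23 after foliar spraying. Leaf stage at treatment: barnyardgrass 1.3–2.8, rice 1.2–2.6, wheat 1.3–2.4, soybean 0.1–0.4. Spray: wettable powder or EC in 500 L/ha water, 0.1% v/v spreader added.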

green foxtail [8] = experiment: Test Example 2: soil surface treatment, upland pot test; format: in vivo, Setaria viridis L.; details: active ingredient 500 g/ha, observed 20th to 28th day
Summary of the method: as §1

redroot pigweed [9] = experiment: as above; format: in vivo, Amaranthus retroflexus L.; details: active ingredient 500 g/ha, observed 20th to 28th day
Summary of the method: as §1

redroot pigweed [10] = experiment: Test Example 1: foliage treatment, upland pot test; format: in vivo, Amaranthus retroflexus L.; details: active ingredient 500 g/ha, observed 18th to 23rd day, 0 = non-treated, 100 = complete kill
barnyardgrass [11] = experiment: Test Example 2: soil surface treatment, upland pot test; format: in vivo, Echinochloa crus-galli L.; details: active ingredient 500 g/ha, observed 20th to 28th day
Summary of the method: as §1

japanese bulrush = experiment: Test Example 3: paddy pot test, application under submerged conditions; format: in vivo, Scirpus juncoides; details: active ingredient 250 g/ha; submerged application at 0.5 leaf stage; visually observed 14 days after application; 0 = non-treated, 100 = complete kill
Summary of the method: (§3)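 Barnyardgrass and japanese bulrush sown in flooded paddy soil in greenhouse pots, japanese ribbon wapato tubers planted 1–2 days later; water depth kept at 3–4 cm. Diluted wettable powder or emulsifiable concentrate applied into water at 0.5-leaf or primary-leaf stage at set active-ingredient doses. Growth control scored visually at 14 days, 0 (untreated) to 100% (complete kill).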

corn [12] = experiment: Test Example 1: foliage treatment, upland pot test; format: in vivo, Zea mays L.; details: crop, active ingredient 500 g/ha, observed 18th to 23rd day, 0 = non-treated, 100 = complete kill
Summary of the method: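 Corn seeds were sown in upland field soil held in a 1/170,000 ha pot and grown to the 2.1 to 3.2 leaf stage. A wettable powder or emulsifiable concentrate of the test compound was diluted with water at 500 L/ha, given 0.1% (v/v) agricultural spreader, and sprayed onto the foliage with a small sprayer. Growth controlling degree (%) was scored visually 18th to 23rd days later, from 0 (non-treated) to 100 (complete kill).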

prickly sida [13] = experiment: Test Example 1: foliage treatment, upland pot test; format: in vivo, Sida spinosa L.; details: active ingredient 500 g/ha, observed 18th to 23rd day, 0 = non-treated, 100 = complete kill
velvetleaf [14] = experiment: Test Example 1: foliage treatment, upland pot test; format: in vivo, Abutilon theophrasti MEDIC.; details: active ingredient 500 g/ha, observed 18th to 23rd day, 0 = non-treated, 100 = complete kill
green foxtail [15] = experiment: Test Example 1: foliage treatment, upland pot test; format: in vivo, Setaria viridis L.; details: active ingredient 500 g/ha, observed 18th to 23rd day, 0 = non-treated, 100 = complete kill
soybean [16] = experiment: Test Example 1: foliage treatment, upland pot test; format: in vivo, Glycine max Merr.; details: crop, active ingredient 500 g/ha, observed 18th to 23rd day, 0 = non-treated, 100 = complete kill
Summary of the method: as §2

barnyardgrass [17] = experiment: Test Example 1: foliage treatment, upland pot test; format: in vivo, Echinochloa crus-galli L.; details: active ingredient 500 g/ha, observed 18th to 23rd day, 0 = non-treated, 100 = complete kill
Summary of the method: as §2

crabgrass [18] = experiment: Test Example 1: foliage treatment, upland pot test; format: in vivo, Digitaria sanguinalis L.; details: active ingredient 500 g/ha, observed 18th to 23rd day, 0 = non-treated, 100 = complete kill
barnyardgrass [19] = experiment: Test Example 3: paddy pot test, application under submerged conditions; format: in vivo, Echinochloa crus-galli L.; details: active ingredient 250 g/ha; submerged application at 0.5 leaf stage; visually observed 14 days after application; 0 = non-treated, 100 = complete kill
Summary of the method: as §3

crabgrass [20] = experiment: Test Example 2: soil surface treatment, upland pot test; format: in vivo, Digitaria sanguinalis L.; details: active ingredient 500 g/ha, observed 20th to 28th day
Summary of the method: as §1

wheat [21] = experiment: as above; format: in vivo, Triticum spp.; details: active ingredient 500 g/ha, observed 20th to 28th day
Summary of the method: as §1

rice (var. Nihonbare) = experiment: Test Example 3: paddy pot test, transplanted rice; format: in vivo, Oryza sativa L.; details: active ingredient 250 g/ha, applied 4th day after transplantation, visually observed 21st day after application, 0 = non-treated, 100 = complete kill
Summary of the method: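 Rice (var. Nihonbare) at 2 leaf stage transplanted 3 cm deep into puddled paddy soil under 3–4 cm flooding; on day 4 after transplanting, diluted wettable powder or emulsifiable concentrate applied by pipette under submerged conditions at a set active-ingredient dose. Growth scored visually 21 days after application, 0 (untreated) to 100 (complete kill) %.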

SMILES | Growth controlling degree (%) wheat (wheat [1]) [%] | Growth controlling degree (%) Rice (rice [2]) [%] | Growth controlling degree (%) Soyabean (soybean [3]) [%] | Growth controlling degree (%) Velvetleaf (velvetleaf [4]) [%] | Growth controlling degree (%) Corn (corn [5]) [%] | Growth controlling degree (%) Prickly sida (prickly sida [6]) [%] | Growth controlling degree (%) Rice (rice [7]) [%] | Growth controlling degree (%) Green foxtail (green foxtail [8]) [%] | Growth controlling degree (%) Redroot pigweed (redroot pigweed [9]) [%] | Growth controlling degree (%) Redroot pigweed (redroot pigweed [10]) [%] | Growth controlling degree (%) Barnyardgrass (barnyardgrass [11]) [%] | Growth controlling degree (%) Japanese bulrush (japanese bulrush) [%] | Growth controlling degree (%) Corn (corn [12]) [%] | Growth controlling degree (%) Prickly sida (prickly sida [13]) [%] | Growth controlling degree (%) Velvetleaf (velvetleaf [14]) [%] | Growth controlling degree (%) Green foxtail (green foxtail [15]) [%] | Growth controlling degree (%) Soybean (soybean [16]) [%] | Growth controlling degree (%) Barnyardgrass (barnyardgrass [17]) [%] | Growth controlling degree (%) Crabgrass (crabgrass [18]) [%] | Growth controlling degree (%) Barnyardgrass (barnyardgrass [19]) [%] | other results
CC(C)C(=O)N(C)C(c1cnccc1C(F)(F)F)C(C)C (stereo not shown) [I-198] | 70 | 98 | 90 | 70 | 70 | 90 | 80 | 100 | 80 | 70 | 100 | 100 | 70 | 70 | 40 | 60 | 60 | 70 | 80 | 100 | Growth controlling degree (%) Crabgrass (crabgrass [20]): 100%; Growth controlling degree (%) wheat (wheat [21]): 98%; Growth controlling degree (%) Rice (rice (var. Nihonbare)): 60%
CC(C)C(c1cnccc1C(F)(F)F)N(C)S(=O)(=O)c1ccc(Cl)cc1 (racemic) [I-125] | 10 | 30 | 10 | 70 | 10 | 80 | 40 | 100 | 50 | 60 | 100 | 70 | 60 | 80 | 70 | 70 | 80 | 70 | 95 | 100 | Growth controlling degree (%) Crabgrass (crabgrass [20]): 100%; Growth controlling degree (%) wheat (wheat [21]): 20%; Growth controlling degree (%) Rice (rice (var. Nihonbare)): 10%
